Series [1] deals with lymph nodes infiltrated with MC-38 colorectal cancer cells. Description: 3D-MRL in MC38 colorectal cancer lymph node metastasis model. Type of series: in vivo, C57BL6 mice. The method, then: In addition, 10-week-old C57BL6 mice (NCI, Frederick, Md.) bearing lymph node metastases of MC38 colorectal cancer cells following either intravenous or subcutaneous injection were used as a mouse model manifesting lymph node metastasis.
The mice were anesthetized with 1.15 mg sodium pentobarbital (Dainabot, Osaka, Japan) i.p., and then injected intracutaneously with 0.1 μmolGd of PAMAM-G8, DAB-G5, PAMAM-G4, Gadomer-17, or GPDM into four middle phalanges in all four extremities. […]
(§1) A 3D-fast spoiled gradient echo [3D-fastSPGR (efgre3d package; Signa Horizon, GE); repetition time/echo time 28.5/7.9 msec; inversion time 65 msec; 31.2 kHz, flip angle 30°, four excitations; 40 slice-encoding steps; scan time 7 min 36 seconds] with chemical shift fat-suppression was used 10, 20, 30, and 45 min after injection of the contrast agents. […] The intensities of the regions of interest (ROIs) (for example, a whole axillary lymph node, and the liver) were measured, and then the time-intensity curves analyzed. The data were expressed as the axillary lymph node-to-muscle and the axillary lymph node-to-liver ratios. […] Two board-certified radiologists separately read a set of stereo views of 3D-MRL for all studies, and estimated the visualization of the thoracic duct. […]

For series [2], the system named is external iliac lymph nodes in infection model. The experiment in a line: 3D-micro-MRL of nude mice with spontaneous oral ulcers and urinary tract infections. Type of series: in vivo. The settings on record: 45 minutes after injection, FIG. 16B. The protocol:
(§2) In this example, the PAMAM-G8 contrast agent is compared to GPDM. PAMAM-G8 was prepared as described in Example 2, and GPDM was purchased (Schering AG, Berlin, Germany). Animal models, administration of the contrast agents, and 3D-micro-MRL were as described in Example 2.
Nude mice that develop spontaneous oral ulcers and urinary tract infections also were examined.

The subject of a further series is deep lymphatic system. Description: Whole-body dynamic 3D-micro-MR lymphangiography of normal mice (Example 2). Type of series: in vivo. The settings on record: for Number of Mice in Which the Thoracic Duct was Visualized/Number of Mice Examined: Normal Mice, 0.1 μmolGd intracutaneously into four middle phalanges. The method, then:
(§3) The mice were anesthetized with 1.15 mg sodium pentobarbital (Dainabot, Osaka, Japan) i.p., and then injected intracutaneously with 0.1 μmolGd of PAMAM-G8, DAB-G5, PAMAM-G4, Gadomer-17, or GPDM into four middle phalanges in all four extremities. Dynamic micro-MR images were obtained using a 1.5-Tesla superconductive magnet unit (Signa LX, General Electric Medical System, Milwaukee, Wis.) with a round birdcage type coil of 3 cm diameter fixed by a custom-made coil holder. Four to eight female mice (7 weeks old, 18-21 g body weight) in each group were used and each contrast agent was prepared at least three separate times for these imaging studies. The mice were wrapped with gauze to stabilize their body temperature and were placed at the center of the coils.
(§4) A 3D-fast spoiled gradient echo [3D-fastSPGR (efgre3d package; Signa Horizon, GE); repetition time/echo time 28.5/7.9 msec; inversion time 65 msec; 31.2 kHz, flip angle 30°, four excitations; 40 slice-encoding steps; scan time 7 min 36 seconds] with chemical shift fat-suppression was used 10, 20, 30, and 45 min after injection of the contrast agents. The coronal images were reconstructed with 0.6-mm section thickness at every 0.3-mm. The FOV was 6×3 cm and the size of the matrix was 512×256. The intensities of the regions of interest (ROIs) (for example, a whole axillary lymph node, and the liver) were measured, and then the time-intensity curves analyzed. The data were expressed as the axillary lymph node-to-muscle and the axillary lymph node-to-liver ratios. The slice data were processed into 3D images using the MIP method with the same window and level (window 3500 and level 2300) (Advantage Windows, General Electric Medical System). Two board-certified radiologists separately read a set of stereo views of 3D-MRL for all studies, and estimated the visualization of the thoracic duct. After imaging, the mice were sacrificed by carbon dioxide inhalation.
Statistical analyses were performed using either Student's t-test or a one-way analysis of variance (ANOVA), with a pairwise comparison using the Bonferroni method for signal intensity curves (Statview; SAS Institute Inc., Cary, N.C.).

Series [3] in a line: Distribution and survival properties of the dendrimer conjugates. The following applies: in vivo.
In series [4] the test system is lymph nodes and lymphatic vessels of IL-15 transgenic mice. The experiment in a line: 3D-micro-MRL in IL-15 transgenic lymphoproliferative/neoplastic disease model. Type of series: in vivo. The settings on record: 45 minutes after injection. The protocol:
Eight- to 10-month old IL-15 transgenic mice (on a C57BL6 background) were used as a chronic lymphoproliferative/neoplastic disease model because they manifested selective expansion of NK, CD8^+NK-T, γδIELs, and CD8 T cells in the periphery. Most of the lymph nodes collected from an aged IL-15 transgenic mouse were enlarged in size. The lesion of proliferated monoclonal lymphocytes often involved the lung and the subcutaneous lymphatic tissue.
as §3
as §1, with “agents. The coronal images were reconstructed with 0.6-mm section thickness at every 0.3-mm.” for “agents.”

In series [5] the test system is lymphatic vessels in Concanavalin A lymphangitis. The experiment in a line: 3D-micro-MRL in Concanavalin A lymphangitis model. Type of series: in vivo, C57BL6 mice. The settings on record: FIGS. 10, 14A. The method, then: To generate a lymphangitis model, Concanavalin A ([…]) (Sigma, St. Louis, Mo.) was injected intravenously into C57BL6 mice (NCI, Frederick, Md.) 24 hours before MRI was performed.
The mice were anesthetized with 1.15 mg sodium pentobarbital (Dainabot, Osaka, Japan) i.p., and then injected intracutaneously with 0.1 μmolGd of PAMAM-G8, DAB-G5, PAMAM-G4, Gadomer-17, or GPDM into four middle phalanges in all four extremities. Dynamic micro-MR images were obtained using a 1.5-Tesla superconductive magnet unit (Signa LX, General Electric Medical System, Milwaukee, Wis.) with a round birdcage type coil of 3 cm diameter fixed by a custom-made coil holder. […]
A 3D-fast spoiled gradient echo [3D-fastSPGR (efgre3d package; Signa Horizon, GE); repetition time/echo time 28.5/7.9 msec; inversion time 65 msec; 31.2 kHz, flip angle 30°, four excitations; 40 slice-encoding steps; scan time 7 min 36 seconds] with chemical shift fat-suppression was used 10, 20, 30, and 45 min after injection of the contrast agents. […] The intensities of the regions of interest (ROIs) (for example, a whole axillary lymph node, and the liver) were measured, and then the time-intensity curves analyzed. The data were expressed as the axillary lymph node-to-muscle and the axillary lymph node-to-liver ratios. […]

Series [6] has as its system deep lymph nodes, thoracic duct and lymphatic vessels. The experiment in a line: Whole-body 3D-micro-MR lymphangiography of normal mice, PAMAM-G8 versus GPDM (Example 3). In kind it is in vivo. The method, then:
as §3, §4, §2

Entries after “also recorded” stand apart in the source; their conditions may differ.

For “PAMAM-G7D-(Gd-1B4M)1024 dendrimer conjugate [PAMAM-G8]”, in series [1] (45 minutes after injection, FIG. 12 left image), the “Findings on 3D-MRL in mouse with lymph node metastasis” value is “dilated lymphatic vessels surrounding the tumor and a collateral lymphatic vessel”. Also, the “Findings on 3D-MRL in mice with subcutaneously xenografted MC-38 tumor” value in series [1] (FIG. 12 right image) is “did not show any abnormalities in either the lymph nodes or the lymphatic vessels”. For the same substance, the “Lymph node findings in infection model” value in series [2] is on record as “irregular dilation of the lymphatic vessels in the lymph nodes”. In addition, the “Number of Mice in Which the Thoracic Duct was Visualized/Number of Mice Examined” value in the series on deep lymphatic system (10 min), in the series on deep lymphatic system (20 min), in the series on deep lymphatic system (30 min) and in the series on deep lymphatic system (45 min) was 10/10 throughout. For the same substance, the “Axillary lymph node-to-background (muscle) signal intensity ratio, comparison between agents” value with deep lymphatic system (T1-weighted signal, all time points examined, P<0.01, FIG. 9A) was “significantly higher than that measured with Gadomer-17 and GPDM”. Besides, in the series on deep lymphatic system (all time points examined, P<0.01, FIG. 9B), the “Axillary lymph node-to-liver signal intensity ratio, comparison between agents” value is reported as “nearly equivalent, but were significantly higher than that measured with GPDM”. For the same substance, the “Visualization of the lymphatic vessels, comparison between agents” value in the series on deep lymphatic system (normal mice) is “better visualized with PAMAM-G8 compared to all other agents examined”. Moreover, the “Visualization of the deep lymph nodes” value with deep lymphatic system (normal mice, 10 to 45 min after intracutaneous injection, FIGS. 7, 8) was “enabled most of the deep lymph nodes to be visualized”. Besides, in the series with deep lymphatic system (normal mice, all times after administration), the “Visualization by a radiologist of the thoracic duct” value is recorded as “in all mice at all times after administration”. Moreover, in series [3], the “Distribution within the lymphatic system” value is “lymphotropic behavior (accumulation in the lymph system) and minimal leakage out of the lymphatic vessels”. The “Visualization of dilation of lymphatic vessels” value in series [4] (FIG. 11) is reported as “best visualized with PAMAM-G8”. In addition, in series [4] (FIGS. 11, 15A), the “Lymph node findings on 3D-micro-MRL” value was “considerable multiple lymph node swellings with central filling defects; also recorded: enlargement and a lack of enhancement within several of the lymph nodes”. The “Detection of dilation of the lymphatic vessels” value in series [5] was “demonstrated the remarkable dilation of the lymphatic vessels throughout the body, especially in the liver; also recorded: able to detect remarkable dilation of lymphatic vessels”. For the same substance, in series [6], the “Visualization of other lymphatic vessels” value is “better visualized with PAMAM-G8 than with GPDM”. Besides, the “Visualization of deep lymph nodes throughout the body” value in series [6] (intracutaneous injection, 0.05 mmolGd/kg (FIG. 13)) is reported as “most deep lymph nodes throughout the body were visualized”. Moreover, the “Visualization of the thoracic duct” value in series [6] (intracutaneous injection, FIG. 13) is “visualized in all six mice”.

The values above are taken from patent US20050171424A1, “Methods for imaging the lymphatic system using dendrimer-based contrast agents” (The Gov. of the USA as rep. by the Secretary of the Dept. …, priority 2004, published 2005).
